Data on 16 compounds can be found in DBAASP.

In brackets after ≈: the same amount, converted by molar mass. Some results are limits rather than exact numbers.

Holding throughout (test): ≥ marks a high value that may be exact or a test limit, other limits are often not marked, values filed in µg/mL are converted to µM
Test [1] concerns Escherichia coli ATCC 25922.
Test [2] deals with Staphylococcus aureus ATCC 25923.
For test [3], the system named is Escherichia coli.
The test system of test [4] is Pseudomonas aeruginosa.
Test [5] deals with Pseudomonas aeruginosa ATCC 27853.
Test [6] relates to Staphylococcus aureus.

`CC[C@H](C)[C@H](NC(=O)[C@H](CCSC)NC(=O)[C@@H](NC(=O)[C@H](CCC(=O)O)NC(=O)CNC(=O)[C@H](CC(C)C)NC(=O)[C@H](Cc1ccccc1)NC(=O)[C@H](C)NC(=O)[C@H](CCCCN)NC(=O)CNC(=O)[C@H](Cc1ccccc1)NC(=O)[C@H](CCCCN)NC(=O)CNC(=O)[C@H](C)NC(=O)[C@H](CO)NC(=O)[C@H](Cc1cnc[nH]1)NC(=O)[C@H](CC(C)C)NC(=O)[C@H](Cc1ccccc1)NC(=O)[C@H](CCCCN)NC(=O)CN)C(C)C)C(=O)NCC(=O)O` [GKFLHSAGKFGKAFLGEVMIG]: the MIC in test [1] and in test [2] was > 100 µM in each case.

With `CC[C@H](C)[C@H](NC(=O)[C@H](Cc1c[nH]c2ccccc12)NC(=O)[C@H](CCCCN)NC(=O)[C@@H]1CCCN1C(=O)[C@H](CC(C)C)NC(=O)[C@H](CCCCN)NC(=O)CNC(=O)[C@@H](NC(=O)[C@@H](NC(=O)[C@@H](N)CO)[C@@H](C)O)[C@@H](C)CC)C(=O)N[C@H](C(=O)N[C@@H](CCCCN)C(=O)N[C@H](C(=O)N[C@H](C(=O)N[C@@H](CC(N)=O)C(=O)N[C@@H](CCCCN)C(=O)N[C@@H](Cc1ccccc1)C(=O)N[C@H](C(=O)N[C@@H](CCCCN)C(=O)N[C@@H](CCCCN)C(=O)O)[C@@H](C)O)C(C)C)[C@@H](C)O)[C@@H](C)CC` [STIGKLPKWIIKTVNKFTKK], the MIC (commonly the least concentration at which growth counts as inhibited) in test [3] was 2.8 µM (≈ 6.53 µg/mL).

`CC[C@H](C)[C@H](NC(=O)CN)C(=O)N[C@@H](CC(C)C)C(=O)N[C@@H](CO)C(=O)N[C@H](C(=O)N[C@H](C(=O)N[C@@H](CCCCN)C(=O)N[C@@H](CC(=O)O)C(=O)N[C@@H](Cc1ccccc1)C(=O)N[C@@H](C)C(=O)N[C@H](C(=O)N[C@@H](CCCCN)C(=O)N[C@@H](C)C(=O)NCC(=O)N[C@@H](CCCCN)C(=O)NCC(=O)N[C@@H](C)C(=O)N[C@@H](C)C(=O)N[C@@H](CCCCN)C(=O)NCC(=O)N[C@@H](CC(C)C)C(=O)N[C@@H](CC(C)C)C(=O)N[C@@H](CCC(=O)O)C(=O)N[C@@H](CCSC)C(=O)N[C@@H](C)C(=O)N[C@@H](CO)C(=O)N[C@H]1CSSC[C@@H](C(=O)O)NC(=O)[C@H](CCC(N)=O)NC(=O)CNC(=O)[C@H](CO)NC(=O)[C@H](CC(C)C)NC(=O)[C@H](CCCCN)NC1=O)[C@@H](C)CC)[C@@H](C)CC)[C@@H](C)O` [GILSTIKDFAIKAGKGAAKGLLEMASCKLSGQC] showed an MIC in test [1] of 3 µM (≈ 9.93 µg/mL).

On to `CC[C@H](C)[C@H](N)C(=O)N[C@@H](CC(C)C)C(=O)NCC(=O)N[C@@H](CCCCN)C(=O)N[C@@H](CC(C)C)C(=O)N[C@@H](Cc1c[nH]c2ccccc12)C(=O)N[C@@H](CCC(=O)O)C(=O)NCC(=O)N[C@H](C(=O)N[C@@H](CCCCN)C(=O)N[C@@H](CO)C(=O)N[C@H](C(N)=O)[C@@H](C)CC)C(C)C` [ILGKLWEGVKSI], for which the MIC in test [4] and in test [5] was > 25 µM each time.

With `CC[C@H](C)[C@H](NC(=O)[C@H](C)NC(=O)[C@H](CCCCN)NC(=O)CNC(=O)[C@@H](NC(=O)[C@H](CCCCN)NC(=O)[C@@H](NC(=O)[C@H](C)NC(=O)[C@H](CCCCN)NC(=O)CNC(=O)[C@H](Cc1c[nH]c2ccccc12)NC(=O)[C@H](CCCCN)NC(=O)[C@@H](NC(=O)[C@H](C)NC(=O)[C@H](CCCCN)NC(=O)CNC(=O)[C@@H](NC(=O)[C@@H](N)CCCCN)[C@@H](C)CC)[C@@H](C)CC)[C@@H](C)CC)[C@@H](C)CC)C(N)=O` [KIGKAIKWGKAIKIGKAI], the MIC in test [3] is 16.6 µM (≈ 32 µg/mL); in test [6], > 133 µM; in test [4], 33.3 µM (≈ 64 µg/mL).

For `CC(C)C[C@H](NC(=O)[C@H](CCCCN)NC(=O)[C@H](CCCCN)NC(=O)[C@H](C)NC(=O)[C@H](CC(C)C)NC(=O)[C@H](CCCCN)NC(=O)[C@H](C)NC(=O)[C@H](CC(C)C)NC(=O)[C@H](CCCCN)NC(=O)[C@H](CCCCN)NC(=O)[C@H](C)NC(=O)[C@H](CC(C)C)NC(=O)[C@@H](N)CCCCN)C(=O)N[C@@H](C)C(N)=O` [KLAKKLAKLAKKLA], the minimum inhibitory concentration (MIC) in test [1] was 6 µM (≈ 9.14 µg/mL); in test [2], 6 µM (≈ 9.14 µg/mL); in test [5] it was 3 µM (≈ 4.57 µg/mL).

`CC[C@H](C)[C@H](NC(=O)[C@H](CCCN=C(N)N)NC(=O)[C@H](Cc1c[nH]c2ccccc12)NC(=O)[C@@H](N)Cc1ccccc1)C(=O)N[C@@H](CCCN=C(N)N)C(=O)N[C@@H](CCCCN)C(=O)N[C@@H](Cc1c[nH]c2ccccc12)C(=O)N[C@@H](CCCN=C(N)N)C(N)=O` [FWRIRKWR]: in test [1], the MIC turned out to be 25.7 µM (≈ 32 µg/mL).

`CSCC[C@H](NC(=O)[C@H](CCCCN)NC(=O)[C@H](CCCCN)NC(=O)[C@H](CCCCN)NC(=O)[C@H](CCCN=C(N)N)NC(=O)[C@H](CCCN=C(N)N)NC(=O)[C@H](Cc1ccc(O)cc1)NC(=O)[C@@H](N)CCCN=C(N)N)C(=O)N[C@@H](CCCCN)C(=O)N[C@@H](CCCCN)C(N)=O` [RYRRKKKMKK]: the MIC in test [1] and in test [5] was > 100 µM throughout.

As to `CC(C)C[C@H](NC(=O)[C@H](Cc1ccccc1)NC(=O)[C@@H]1CCCN1C(=O)[C@H](Cc1c[nH]c2ccccc12)NC(=O)[C@H](Cc1c[nH]c2ccccc12)NC(=O)[C@H](C)NC(=O)[C@@H]1CCCN1C(=O)[C@H](Cc1ccccc1)NC(=O)[C@H](CCCN=C(N)N)NC(=O)[C@H](CCCN=C(N)N)NC(=O)[C@@H](N)C(C)C)C(=O)N[C@@H](CCCN=C(N)N)C(=O)N[C@@H](CCCN=C(N)N)C(N)=O` [VRRFPAWWPFLRR], the MIC in test [1] was 45.3 µM (≈ 80.8 µg/mL).

In the case of `CC[C@H](C)[C@H](NC(=O)[C@H](Cc1ccccc1)NC(=O)[C@H](CO)NC(=O)[C@H](CCCCN)NC(=O)[C@H](Cc1c[nH]c2ccccc12)NC(=O)[C@@H](N)CCCCN)C(=O)N[C@@H](CCCCN)C(=O)N[C@@H](CCCCN)C(=O)N[C@@H](CCCCN)C(=O)N[C@H](C(=O)N[C@@H](CO)C(=O)N[C@@H](CCCCN)C(=O)N[C@@H](Cc1ccccc1)C(=O)N[C@@H](CC(C)C)C(=O)N[C@@H](Cc1cnc[nH]1)C(=O)N[C@@H](CO)C(=O)N[C@@H](C)C(=O)N[C@@H](CCCCN)C(=O)N[C@@H](CCCCN)C(=O)N[C@@H](Cc1ccccc1)C(N)=O)[C@@H](C)O` [KWKSFIKKKTSKFLHSAKKF], the MIC in test [4] was > 20.3 µM.

For `CC(C)C[C@H](NC(=O)[C@H](CC(C)C)NC(=O)[C@@H](N)CCCCN)C(=O)N[C@@H](CCCN=C(N)N)C(=O)N[C@@H](CCCCN)C(=O)N[C@@H](CCCCN)C(=O)N[C@@H](Cc1ccccc1)C(=O)N[C@@H](Cc1c[nH]c2ccccc12)C(=O)N[C@@H](Cc1c[nH]c2ccccc12)C(=O)NCC(N)=O` [KLLRKKFWWG], the minimum inhibitory concentration (MIC) is 184 µM (≈ 250 µg/mL) in test [2] and 91.8 µM (≈ 125 µg/mL) in test [3].

Turning to `CC[C@H](C)[C@H](NC(=O)CN)C(=O)NCC(=O)N[C@@H](CCCCN)C(=O)N[C@@H](Cc1ccccc1)C(=O)N[C@@H](CC(C)C)C(=O)N[C@@H](Cc1cnc[nH]1)C(=O)N[C@@H](CO)C(=O)N[C@@H](C)C(=O)N[C@@H](CCCCN)C(=O)N[C@@H](CCCCN)C(=O)N[C@@H](Cc1ccccc1)C(=O)NCC(=O)N[C@@H](CCCCN)C(=O)N[C@@H](C)C(=O)N[C@@H](Cc1ccccc1)C(=O)N[C@H](C(=O)NCC(=O)N[C@@H](CCC(=O)O)C(=O)N[C@H](C(=O)N[C@@H](CCSC)C(=O)N[C@@H](CC(N)=O)C(=O)N[C@@H](CO)C(=O)NCC(=O)NCC(=O)N[C@@H](CO)C(N)=O)[C@@H](C)CC)C(C)C` [GIGKFLHSAKKFGKAFVGEIMNSGGS], the MIC in test [1] came out at 2.23 µM (≈ 5.94 µg/mL).

As for `CC[C@H](C)[C@H](NC(=O)CN)C(=O)NCC(=O)N[C@@H](CCCCN)C(=O)N[C@@H](Cc1ccccc1)C(=O)N[C@H](C(=O)N[C@@H](Cc1cnc[nH]1)C(=O)N[C@@H](CO)C(=O)N[C@@H](C)C(=O)N[C@@H](CCCCN)C(=O)N[C@@H](CCCN=C(N)N)C(=O)N[C@@H](Cc1ccccc1)C(=O)NCC(=O)N[C@@H](CCCN=C(N)N)C(=O)N[C@@H](C)C(=O)N[C@@H](Cc1c[nH]c2ccccc12)C(=O)N[C@H](C(=O)NCC(=O)N[C@@H](CCC(=O)O)C(=O)N[C@H](C(=O)N[C@@H](CCSC)C(=O)N[C@@H](CC(N)=O)C(=O)N[C@@H](CO)C(N)=O)[C@@H](C)CC)C(C)C)[C@@H](C)CC` [GIGKFIHSAKRFGRAWVGEIMNS], the MIC in test [3] is 37.5 µM (≈ 96 µg/mL); in test [6], > 75 µM; in test [4] it was 75 µM (≈ 192 µg/mL).

With `CC[C@H](C)[C@H](NC(=O)[C@H](CCCN=C(N)N)NC(=O)[C@H](CCCCN)NC(=O)[C@H](CC(C)C)NC(=O)[C@H](CC(C)C)NC(=O)CN)C(=O)N[C@@H](C)C(=O)N[C@H](C(=O)N[C@@H](CC(C)C)C(=O)N[C@@H](CC(C)C)C(N)=O)[C@@H](C)O` [GLLKRIATLL], the MIC in test [1] and in test [2] was 10 µM (≈ 11 µg/mL) each time.

Take `CC[C@H](C)[C@H](NC(=O)[C@H](C)NC(=O)CNC(=O)[C@@H](NC(=O)[C@H](CCCCN)NC(=O)[C@H](CCCCN)NC(=O)[C@@H](NC(=O)[C@H](C)NC(=O)CNC(=O)[C@H](Cc1c[nH]c2ccccc12)NC(=O)[C@H](CCCCN)NC(=O)[C@H](CCCCN)NC(=O)[C@@H](NC(=O)[C@H](C)NC(=O)CNC(=O)[C@@H](NC(=O)[C@@H](N)CCCCN)[C@@H](C)CC)[C@@H](C)CC)[C@@H](C)CC)[C@@H](C)CC)C(=O)N[C@@H](CCCCN)C(N)=O` [KIGAIKKWGAIKKIGAIK]: the MIC in test [3], in test [6] and in test [4] was > 133 µM each time.

In test [1], `CC[C@H](C)[C@H](NC(=O)CN)C(=O)N[C@@H](CCSC)C(=O)N[C@@H](CC(=O)O)C(=O)N[C@H](C(=O)N[C@H](C(=O)N[C@@H](CCCCN)C(=O)N[C@@H](CC(N)=O)C(=O)N[C@H](C(=O)N[C@@H](C)C(=O)N[C@@H](CCCCN)C(=O)N[C@@H](CC(N)=O)C(=O)N[C@@H](CC(C)C)C(=O)N[C@@H](C)C(=O)NCC(=O)N[C@@H](CCC(N)=O)C(=O)N[C@@H](CC(C)C)C(=O)N[C@@H](CC(C)C)C(=O)N[C@@H](CC(=O)O)C(=O)N[C@@H](CCCCN)C(=O)N[C@@H](CC(C)C)C(=O)N[C@@H](CCCCN)C(=O)N[C@H]1CSSC[C@@H](C(=O)O)NC(=O)[C@H](C)NC(=O)[C@H]([C@@H](C)O)NC(=O)[C@H]([C@@H](C)CC)NC(=O)[C@H](CCCCN)NC1=O)C(C)C)C(C)C)[C@@H](C)O` [GIMDTVKNVAKNLAGQLLDKLKCKITAC] showed an MIC of 25 µM (≈ 74.7 µg/mL).
